{
  "source": "patent US20070191442A1",
  "about": "“Aqueous Pharmaceutical Formulations of ER-beta Selective Ligands” (priority 2006, published 2007)",
  "format_in_all_cases": "physicochemical",
  "key": {"[1]": {"assay": "Chemical stability of a pharmaceutical composition of Compound 1 (potency, degradation impurities by HPLC)", "conditions": "for Potency (percent of the initial API concentration) / Impurity (MW not given) / Impurity MW 279 / Impurity MW 556 / Impurity MW 574: 15% HPBCD, pH 9.2; for Impurity (MW not given) / Impurity MW 279 / Impurity MW 556 / Impurity MW 574: HPLC", "experimental": "As used herein, potency refers to the percent of the initial API concentration.\nThe potency of each composition was determined, and the concentration of impurities from degradation was measured by HPLC, as shown in Table 4."}, "[2]": {"assay": "Solubility of Compound 1 formulated with HPBCD (FIG. 2, FIG. 3)", "source_text": "FIG. 2 depicts the water solubility of the unionized form of Compound 1 with increasing concentrations of hydroxypropyl-beta-cyclodextrin (HPBCD). FIG. 3 depicts the water solubility of the ionized form of Compound 1 at pH 9.0 and 10.3 with increasing concentrations of hydroxypropyl-beta-cyclodextrin (HPBCD)."}, "[3]": {"assay": "Serial dilution study with phosphate buffered saline as diluent and blood model; precipitate observed for two minutes", "experimental": "A serial dilution study was also undertaken to assess the risk of Compound 1 precipitating upon injection. Phosphate buffered saline (PBS) was used as the diluent and blood model. Accordingly, 10 mg/mL (at pH 9.2) and 30 mg/mL (at pH 10.5) compositions of Compound 1 were prepared by the method described in Example 1, both having 15% HPBCD. The solutions were then serially diluted with PBS."}, "[4]": {"assay": "Water solubility of Compound 1 with increasing pH (FIG. 1)", "source_text": "FIG. 1 depicts the water solubility of Compound 1 with increasing pH. The aqueous pharmaceutical compositions of the invention include a solubilizer/complexant component, to aid in solubilizing the ERβ selective ligand. […] Accordingly, present compositions include a solubilizer/complexant component to aid in solubilization. Generally, the solubilizer/complexant component consists of one or more solubilizing and/or complexing agents known to be useful in the preparation of pharmaceutical formulations. In some embodiments, the solubilizer/complexant component consists of a single solubilizing and/or complexing agent. In some embodiments, the solubilizer/complexant component includes, but is not limited to, cosolvents such as glycerine, ethanol, propylene glycol, sorbitol and polyethylene glycol, and surfactants such as the polyoxyethylene sorbitan fatty acid esters (e.g., polysorbate 80), polyoxyethylene castor oil derivatives (e.g., cremophor EL, cremophor RH40), vitamin E TPGS (d-alpha-tocopheryl polyethylene glycol), solutol (polyethylene glycol esters of hydroxystearate), polyoxyethylene-polyoxypropylene copolymers, polyoxyethylene fatty alcohol ethers, polyethoxylated fatty acid esters, polyoxyethylene-glycerol fatty esters, polyglycolized glycerides, polyethoxylated cholesterols, polyethoxylated sterols, and polyethoxylated vegetable oils. In some embodiments, the solubilizer/complexant component includes, but is not limited to, cosolvents such as glycerine, ethanol, propylene glycol, and polyethylene glycol, and surfactants such as the polyoxyethylene sorbitan fatty acid esters, polyoxyethylene castor oil derivatives, vitamin E TPGS, and solutol. […] Examples of some preferred solubilizing and/or complexing agents include cyclodextrins (including alpha, beta and gamma cyclodextrins) and substituted cyclodextrins, for example hydroxypropyl beta-cyclodextrin and sulfobutyl ether beta-cyclodextrin, with hydroxypropyl beta-cyclodextrin being preferred. […]"}},
  "data": [
    {"compound": "N#Cc1cc(-c2ccc(O)c(F)c2)cc2ccc(O)cc12", "note": "[Compound 1, 3-(3-Fluoro-4-hydroxy-phenyl)-7-hydroxy-naphthalene-1-carbonitrile]", "values": [
      {"measurement": "Potency (percent of the initial API concentration)", "setting": "[1]; stored 1 mo. at 25 °C", "result": 100.8},
      {"measurement": "Potency (percent of the initial API concentration)", "setting": "[1]; stored 1 mo. at 40 °C", "result": 100.4},
      {"measurement": "Impurity (MW not given)", "setting": "[1]; stored 1 mo. at 40 °C", "result": 0.06},
      {"measurement": "Impurity MW 279", "setting": "[1]; stored 1 mo. at 40 °C", "result": 0.07},
      {"measurement": "Impurity MW 556", "setting": "[1]; stored 1 mo. at 40 °C", "result": 0.33},
      {"measurement": "Impurity MW 574", "setting": "[1]; stored 1 mo. at 40 °C", "result": 0.03},
      {"measurement": "Potency (percent of the initial API concentration)", "setting": "[1]; stored 3 mo. at 4 °C", "result": 99.9},
      {"measurement": "Potency (percent of the initial API concentration)", "setting": "[1]; stored 3 mo. at 25 °C", "result": 98.9},
      {"measurement": "Impurity (MW not given)", "setting": "[1]; stored 3 mo. at 25 °C", "result": 0.02},
      {"measurement": "Impurity MW 279", "setting": "[1]; stored 3 mo. at 25 °C", "result": 0.03},
      {"measurement": "Impurity MW 556", "setting": "[1]; stored 3 mo. at 25 °C", "result": 0.11},
      {"measurement": "Potency (percent of the initial API concentration)", "setting": "[1]; stored 3 mo. at 40 °C", "result": 98.1},
      {"measurement": "Impurity (MW not given)", "setting": "[1]; stored 3 mo. at 40 °C", "result": 0.12},
      {"measurement": "Impurity MW 279", "setting": "[1]; stored 3 mo. at 40 °C", "result": 0.16},
      {"measurement": "Impurity MW 556", "setting": "[1]; stored 3 mo. at 40 °C", "result": 0.62},
      {"measurement": "Impurity MW 574", "setting": "[1]; stored 3 mo. at 40 °C", "result": 0.06},
      {"measurement": "Potency (percent of the initial API concentration)", "setting": "[1]; stored 6 mo. at 4 °C", "result": 98.0},
      {"measurement": "Impurity MW 556", "setting": "[1]; stored 6 mo. at 4 °C", "result": 0.06},
      {"measurement": "Potency (percent of the initial API concentration)", "setting": "[1]; stored 6 mo. at 25 °C", "result": 97.7},
      {"measurement": "Impurity (MW not given)", "setting": "[1]; stored 6 mo. at 25 °C", "result": 0.04},
      {"measurement": "Impurity MW 279", "setting": "[1]; stored 6 mo. at 25 °C", "result": 0.05},
      {"measurement": "Impurity MW 556", "setting": "[1]; stored 6 mo. at 25 °C", "result": 0.36},
      {"measurement": "Impurity MW 574", "setting": "[1]; stored 6 mo. at 25 °C", "result": 0.03},
      {"measurement": "Potency (percent of the initial API concentration)", "setting": "[1]; stored 6 mo. at 40 °C", "result": 93.3},
      {"measurement": "Impurity (MW not given)", "setting": "[1]; stored 6 mo. at 40 °C", "result": 0.3},
      {"measurement": "Impurity MW 279", "setting": "[1]; stored 6 mo. at 40 °C", "result": 0.4},
      {"measurement": "Impurity MW 556", "setting": "[1]; stored 6 mo. at 40 °C", "result": 1.57},
      {"measurement": "Impurity MW 574", "setting": "[1]; stored 6 mo. at 40 °C", "result": 0.11},
      {"measurement": "molecular weight 556 impurity", "setting": "[1]; comparable formulation without the HPBCD (5 mg/mL, 50 mM glycine buffer, pH 11), at three days", "result": 0.34, "unit": "%"},
      {"measurement": "increase in solubility", "setting": "[2]; 15% HPBCD at pH 9, compared with free acid form at pH 6.3-7.6 formulated with 15% HPBCD", "result": 10, "unit": "fold"},
      {"measurement": "increase in solubility", "setting": "[2]; 15% HPBCD at pH 10.3, compared with free acid form at pH 6.3-7.6 formulated with 15% HPBCD", "result": 30, "unit": "fold"},
      {"measurement": "Precipitate at 2 min.", "setting": "[3]; 10 mg/mL (pH 9.2) composition, 15% HPBCD, diluted with PBS to 0.009766 mg/mL, pH 7.43", "result": "none"},
      {"measurement": "Precipitate at 2 min.", "setting": "[3]; 10 mg/mL (pH 9.2) composition, 15% HPBCD, diluted with PBS to 0.019531 mg/mL, pH 7.45", "result": "none"},
      {"measurement": "Precipitate at 2 min.", "setting": "[3]; 10 mg/mL (pH 9.2) composition, 15% HPBCD, diluted with PBS to 0.039063 mg/mL, pH 7.47", "result": "none"},
      {"measurement": "Precipitate at 2 min.", "setting": "[3]; 10 mg/mL (pH 9.2) composition, 15% HPBCD, diluted with PBS to 0.078125 mg/mL, pH 7.57", "result": "none"},
      {"measurement": "Precipitate at 2 min.", "setting": "[3]; 10 mg/mL (pH 9.2) composition, 15% HPBCD, diluted with PBS to 0.15625 mg/mL, pH 7.75", "result": "none"},
      {"measurement": "Precipitate at 2 min.", "setting": "[3]; 10 mg/mL (pH 9.2) composition, 15% HPBCD, diluted with PBS to 0.3125 mg/mL, pH 8.01", "result": "none"},
      {"measurement": "Precipitate at 2 min.", "setting": "[3]; 10 mg/mL (pH 9.2) composition, 15% HPBCD, diluted with PBS to 0.625 mg/mL, pH 8.36", "result": "none"},
      {"measurement": "Precipitate at 2 min.", "setting": "[3]; 10 mg/mL (pH 9.2) composition, 15% HPBCD, diluted with PBS to 1.25 mg/mL, pH 8.65", "result": "none"},
      {"measurement": "Precipitate at 2 min.", "setting": "[3]; 10 mg/mL (pH 9.2) composition, 15% HPBCD, diluted with PBS to 2.5 mg/mL, pH 8.83", "result": "none"},
      {"measurement": "Precipitate at 2 min.", "setting": "[3]; 10 mg/mL (pH 9.2) composition, 15% HPBCD, diluted with PBS to 5 mg/mL, pH 9.04", "result": "none"},
      {"measurement": "concentration of Compound 1 on dilution relative to water solubility (FIG. 4)", "setting": "[3]; 10 mg/mL and 30 mg/mL solutions, 15% HPBCD, serial dilution with PBS", "result": "maintained above the water solubility for sufficient time for complete dilution in the blood stream"},
      {"measurement": "tendency to precipitate upon dilution", "setting": "[3]; 10 mg/mL solution versus 30 mg/mL solution, both 15% HPBCD, diluted with PBS", "result": "lower tendency to precipitate upon dilution"},
      {"measurement": "Precipitate at 2 min.", "setting": "[3]; 30 mg/mL (pH 10.5) composition, 15% HPBCD, diluted with PBS to 0.029297 mg/mL, pH 7.55", "result": "yes"},
      {"measurement": "Precipitate at 2 min.", "setting": "[3]; 30 mg/mL (pH 10.5) composition, 15% HPBCD, diluted with PBS to 0.058594 mg/mL, pH 7.68", "result": "yes"},
      {"measurement": "Precipitate at 2 min.", "setting": "[3]; 30 mg/mL (pH 10.5) composition, 15% HPBCD, diluted with PBS to 0.117188 mg/mL, pH 8", "result": "yes"},
      {"measurement": "Precipitate at 2 min.", "setting": "[3]; 30 mg/mL (pH 10.5) composition, 15% HPBCD, diluted with PBS to 0.234375 mg/mL, pH 8.45", "result": "yes"},
      {"measurement": "Precipitate at 2 min.", "setting": "[3]; 30 mg/mL (pH 10.5) composition, 15% HPBCD, diluted with PBS to 0.46875 mg/mL, pH 8.82", "result": "none"},
      {"measurement": "Precipitate at 2 min.", "setting": "[3]; 30 mg/mL (pH 10.5) composition, 15% HPBCD, diluted with PBS to 0.9375 mg/mL, pH 9", "result": "none"},
      {"measurement": "Precipitate at 2 min.", "setting": "[3]; 30 mg/mL (pH 10.5) composition, 15% HPBCD, diluted with PBS to 1.875 mg/mL, pH 9.32", "result": "none"},
      {"measurement": "Precipitate at 2 min.", "setting": "[3]; 30 mg/mL (pH 10.5) composition, 15% HPBCD, diluted with PBS to 3.75 mg/mL, pH 9.6", "result": "none"},
      {"measurement": "Precipitate at 2 min.", "setting": "[3]; 30 mg/mL (pH 10.5) composition, 15% HPBCD, diluted with PBS to 7.5 mg/mL, pH 9.9", "result": "none"},
      {"measurement": "Precipitate at 2 min.", "setting": "[3]; 30 mg/mL (pH 10.5) composition, 15% HPBCD, diluted with PBS to 15 mg/mL, pH 10.17", "result": "none"},
      {"measurement": "solubility at the pH maxima considered safe for IV administration", "setting": "[4]; about pH 10", "result": "poorly soluble"},
      {"measurement": "solubility at lower pH", "setting": "[4]; lower pH", "result": "relatively insoluble"},
      {"measurement": "solubility in water", "setting": "[4]; water", "result": "insoluble in water"}
    ]}
  ]
}
